{"source": "patent US11339447B2", "about": "“System and method for determining Kareniticin sensitivity on cancer” (CROWN BIOSCIENCE, INC. (TAICANG), priority 2017, dated 2022)", "test_in_all_cases": "karenitecin treatment of PDX model", "assay_type_in_all_cases": "in vivo", "set-up_in_all_cases": "key to Response: responder: responded to karenitecin treatment (AUC<0.5 and TGI>0.8); non_responder: did not respond to karenitecin treatment (AUC>0.5 and TGI<0.6)", "conditions_in_all_cases": "karenitecin treatment for two weeks", "key": {"[1]": {"test_system": "PDX GA3102", "protocol": "(§1) A cohort of 48 PDX models in 8 cancers were used in this study. Those models were subject to karenitecin treatment for two weeks. Both tumor growth inhibition (TGI) and median AUC (area under curve) ratio, a newly developed metric to evaluate drug efficacy, were calculated (Table 1). Those models can be divided into two categories according to TGI and median AUC ratio."}, "[2]": {"test_system": "PDX LU1429", "protocol": "as §1"}, "[3]": {"test_system": "PDX LU1155", "protocol": "as §1"}, "[4]": {"test_system": "PDX ES0110", "protocol": "as §1"}, "[5]": {"test_system": "PDX OV0243", "protocol": "as §1"}, "[6]": {"test_system": "PDX OV0276", "protocol": "as §1"}, "[7]": {"test_system": "PDX PA3065", "protocol": "as §1"}, "[8]": {"test_system": "PDX ES0212", "protocol": "as §1"}, "[9]": {"test_system": "PDX OV1658", "protocol": "as §1"}, "[10]": {"test_system": "PDX PA0527", "protocol": "as §1"}, "[11]": {"test_system": "PDX LU0884", "protocol": "as §1"}, "[12]": {"test_system": "PDX CR3310", "protocol": "as §1"}, "[13]": {"test_system": "PDX CR0126", "protocol": "as §1"}, "[14]": {"test_system": "PDX CR3079", "protocol": "as §1"}, "[15]": {"test_system": "PDX CR2528", "protocol": "as §1"}, "[16]": {"test_system": "PDX ES0176", "protocol": "as §1"}, "[17]": {"test_system": "PDX PA1301", "protocol": "as §1"}, "[18]": {"test_system": "PDX CR6249", "protocol": "as §1"}}, "data": [{"smiles": "CC[C@@]1(O)C(=O)OCc2c1cc1n(c2=O)Cc2c-1nc1ccccc1c2CC[Si](C)(C)C", "note": "[karenitecin]", "values": [{"measurement": "Median AUC ratio", "setting": "[1]", "value": 0.084}, {"measurement": "Response", "setting": "[1]", "value": "responder"}, {"measurement": "TGI", "setting": "[1]", "value": 1.061}, {"measurement": "Median AUC ratio", "setting": "[2]", "value": 0.076}, {"measurement": "Response", "setting": "[2]", "value": "responder"}, {"measurement": "TGI", "setting": "[2]", "value": 1.054}, {"measurement": "Median AUC ratio", "setting": "[3]", "value": 0.406}, {"measurement": "Response", "setting": "[3]", "value": "responder"}, {"measurement": "TGI", "setting": "[3]", "value": 0.991}, {"measurement": "Median AUC ratio", "setting": "[4]", "value": 0.344}, {"measurement": "Response", "setting": "[4]", "value": "responder"}, {"measurement": "TGI", "setting": "[4]", "value": 1.010}, {"measurement": "Median AUC ratio", "setting": "[5]", "value": "−1.983"}, {"measurement": "Response", "setting": "[5]", "value": "responder"}, {"measurement": "TGI", "setting": "[5]", "value": 1.449}, {"measurement": "Median AUC ratio", "setting": "[6]", "value": 0.314}, {"measurement": "Response", "setting": "[6]", "value": "responder"}, {"measurement": "TGI", "setting": "[6]", "value": 1.103}, {"measurement": "Median AUC ratio", "setting": "[7]", "value": 0.309}, {"measurement": "Response", "setting": "[7]", "value": "responder"}, {"measurement": "TGI", "setting": "[7]", "value": 1.019}, {"measurement": "Median AUC ratio", "setting": "[8]", "value": 0.061}, {"measurement": "Response", "setting": "[8]", "value": "responder"}, {"measurement": "TGI", "setting": "[8]", "value": 1.017}, {"measurement": "Median AUC ratio", "setting": "[9]", "value": 0.764}, {"measurement": "Response", "setting": "[9]", "value": "non_responder"}, {"measurement": "TGI", "setting": "[9]", "value": 0.433}, {"measurement": "Median AUC ratio", "setting": "[10]", "value": 0.316}, {"measurement": "Response", "setting": "[10]", "value": "responder"}, {"measurement": "TGI", "setting": "[10]", "value": 0.996}, {"measurement": "Median AUC ratio", "setting": "[11]", "value": 1.497}, {"measurement": "Response", "setting": "[11]", "value": "non_responder"}, {"measurement": "TGI", "setting": "[11]", "value": "−0.188"}, {"measurement": "Median AUC ratio", "setting": "[12]", "value": "−0.926"}, {"measurement": "Response", "setting": "[12]", "value": "responder"}, {"measurement": "TGI", "setting": "[12]", "value": 1.727}, {"measurement": "Median AUC ratio", "setting": "[13]", "value": 1.399}, {"measurement": "Response", "setting": "[13]", "value": "non_responder"}, {"measurement": "TGI", "setting": "[13]", "value": "−0.308"}, {"measurement": "Median AUC ratio", "setting": "[14]", "value": 0.706}, {"measurement": "Response", "setting": "[14]", "value": "non_responder"}, {"measurement": "TGI", "setting": "[14]", "value": 0.381}, {"measurement": "Median AUC ratio", "setting": "[15]", "value": 1.014}, {"measurement": "Response", "setting": "[15]", "value": "non_responder"}, {"measurement": "TGI", "setting": "[15]", "value": 0.519}, {"measurement": "Median AUC ratio", "setting": "[16]", "value": 1.242}, {"measurement": "Response", "setting": "[16]", "value": "non_responder"}, {"measurement": "TGI", "setting": "[16]", "value": "−0.177"}, {"measurement": "Median AUC ratio", "setting": "[17]", "value": 1.038}, {"measurement": "Response", "setting": "[17]", "value": "non_responder"}, {"measurement": "TGI", "setting": "[17]", "value": 0.285}, {"measurement": "Median AUC ratio", "setting": "[18]", "value": "−0.712"}, {"measurement": "Response", "setting": "[18]", "value": "responder"}, {"measurement": "TGI", "setting": "[18]", "value": 1.253}]}]}
